Read-outs that look alike come from different tables or passages of the source.
Assays:
EGFR L858R/T790M = molecular target: T1, EGFR L858R/T790M (Homo sapiens, UniProt P00533, L858R/T790M); assay: Inhibition of EGFR L858R/T790M biochemical enzymatic activity (HTRF); settings: EGFR L858R-T790M, 1 mM ATP, 1 h, room temperature, read-out: IC50 (nM) @L858R-T790M
T1 construct: purchased Carna Bio
Method in brief: (§1)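 Read-out is the HTRF 665/615 nm ratio (excitation 320 nm), taken as proportional to kinase activity after a 1 h room-temperature reaction with 1 mM ATP and 1 μM biotinylated TK substrate. IC50 values derive from four-parameter logistic fitting.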

EGFR[T790M/C797S/L858R] = molecular target: T2, EGFR[T790M/C797S/L858R] (Homo sapiens, UniProt P00533, C797S/L858R/T790M); assay: Inhibition of EGFR[T790M/C797S/L858R] biochemical enzymatic activity (HTRF); settings: EGFR T790M-C797S-L858R, 1 mM ATP, 1 h, room temperature, read-out: IC50 (nM) @T790M- C797S - L858R
T2 construct: purchased Carna Bio
T2 sequence (P00533 25-1210 T790M/C797S/L858R): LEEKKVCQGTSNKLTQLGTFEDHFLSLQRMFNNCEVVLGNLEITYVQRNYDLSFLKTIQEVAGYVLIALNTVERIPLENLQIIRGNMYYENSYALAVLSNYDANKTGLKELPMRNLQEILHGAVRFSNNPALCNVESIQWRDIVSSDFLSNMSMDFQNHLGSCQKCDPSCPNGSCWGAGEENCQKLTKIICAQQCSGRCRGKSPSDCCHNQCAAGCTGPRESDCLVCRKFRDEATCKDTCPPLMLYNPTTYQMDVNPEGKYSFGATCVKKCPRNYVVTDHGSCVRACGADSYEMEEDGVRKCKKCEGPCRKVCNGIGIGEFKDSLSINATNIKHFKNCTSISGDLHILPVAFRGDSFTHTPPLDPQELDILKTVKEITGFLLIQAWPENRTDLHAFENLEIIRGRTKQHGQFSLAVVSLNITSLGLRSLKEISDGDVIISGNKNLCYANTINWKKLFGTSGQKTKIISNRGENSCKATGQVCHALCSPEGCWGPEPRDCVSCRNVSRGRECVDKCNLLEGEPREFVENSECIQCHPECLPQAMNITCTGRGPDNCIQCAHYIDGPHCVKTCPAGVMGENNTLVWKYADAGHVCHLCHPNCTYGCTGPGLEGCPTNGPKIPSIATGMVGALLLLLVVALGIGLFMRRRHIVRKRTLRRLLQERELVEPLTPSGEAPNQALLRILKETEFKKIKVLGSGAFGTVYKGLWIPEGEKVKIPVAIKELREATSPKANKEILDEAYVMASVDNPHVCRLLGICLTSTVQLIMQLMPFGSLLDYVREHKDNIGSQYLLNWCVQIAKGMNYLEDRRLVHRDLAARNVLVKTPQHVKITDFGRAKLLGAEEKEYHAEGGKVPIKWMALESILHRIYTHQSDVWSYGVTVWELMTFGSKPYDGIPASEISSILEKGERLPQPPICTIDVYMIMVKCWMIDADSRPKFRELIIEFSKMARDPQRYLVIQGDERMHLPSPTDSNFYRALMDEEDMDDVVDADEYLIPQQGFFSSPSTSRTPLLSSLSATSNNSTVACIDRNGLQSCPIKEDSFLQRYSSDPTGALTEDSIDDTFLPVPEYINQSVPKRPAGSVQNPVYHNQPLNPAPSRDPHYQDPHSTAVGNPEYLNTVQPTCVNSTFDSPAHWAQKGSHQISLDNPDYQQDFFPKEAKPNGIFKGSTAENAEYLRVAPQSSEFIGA
Method in brief: as §1

EGFR Exon19Del/T790M = molecular target: T3, EGFR Exon19Del/T790M (Homo sapiens, UniProt P00533, DEL746-750/T790M); assay: Inhibition of EGFR Exon19Del/T790M biochemical enzymatic activity (HTRF); settings: EGFR Del19-T790M, 1 mM ATP, 1 h, room temperature, read-out: IC50 (nM) @Del19-T790M
T3 construct: purchased Carna Bio
T3 sequence (P00533 with tags, fused parts or gaps DEL746-750/T790M limits assumed): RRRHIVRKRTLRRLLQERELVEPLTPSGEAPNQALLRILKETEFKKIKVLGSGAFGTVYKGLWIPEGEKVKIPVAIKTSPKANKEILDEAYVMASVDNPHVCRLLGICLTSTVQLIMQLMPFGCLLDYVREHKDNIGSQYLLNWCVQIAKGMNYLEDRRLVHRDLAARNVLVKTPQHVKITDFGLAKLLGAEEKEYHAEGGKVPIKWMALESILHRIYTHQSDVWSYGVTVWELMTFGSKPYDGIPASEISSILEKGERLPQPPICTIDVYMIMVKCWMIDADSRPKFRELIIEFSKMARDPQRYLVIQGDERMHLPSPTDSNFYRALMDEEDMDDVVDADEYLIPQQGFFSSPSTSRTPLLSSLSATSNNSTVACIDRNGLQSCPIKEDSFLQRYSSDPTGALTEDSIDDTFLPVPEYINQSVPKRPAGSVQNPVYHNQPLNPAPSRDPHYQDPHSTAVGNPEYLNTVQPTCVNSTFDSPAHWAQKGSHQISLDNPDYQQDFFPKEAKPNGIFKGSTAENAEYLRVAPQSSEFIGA
Method in brief: as §1

EGFR Exon19Del = molecular target: T4, EGFR Exon19Del (Homo sapiens, UniProt P00533, DEL746-750); assay: Inhibition of EGFR Exon19Del biochemical enzymatic activity (HTRF); settings: EGFR Del19, 1 mM ATP, 1 h, room temperature, read-out: IC50 @Del19
T4 construct: purchased Carna Bio
T4 sequence (P00533 with tags, fused parts or gaps DEL746-750 limits assumed): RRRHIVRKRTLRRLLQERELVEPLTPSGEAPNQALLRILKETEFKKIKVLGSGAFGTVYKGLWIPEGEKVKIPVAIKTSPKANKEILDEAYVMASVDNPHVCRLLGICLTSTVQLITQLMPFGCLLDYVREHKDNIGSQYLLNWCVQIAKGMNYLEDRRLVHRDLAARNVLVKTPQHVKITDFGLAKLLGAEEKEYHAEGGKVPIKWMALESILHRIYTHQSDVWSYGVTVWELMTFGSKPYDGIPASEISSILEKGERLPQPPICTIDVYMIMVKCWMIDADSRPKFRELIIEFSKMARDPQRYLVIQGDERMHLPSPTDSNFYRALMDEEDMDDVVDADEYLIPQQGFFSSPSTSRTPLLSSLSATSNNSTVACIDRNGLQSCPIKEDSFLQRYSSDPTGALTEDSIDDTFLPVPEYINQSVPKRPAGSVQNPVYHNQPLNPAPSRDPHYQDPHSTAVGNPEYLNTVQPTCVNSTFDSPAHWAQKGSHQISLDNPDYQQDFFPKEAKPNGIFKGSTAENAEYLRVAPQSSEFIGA
Method in brief: as §1

PC-9 = assay: Cell proliferation assay, PC-9 cells (CellTiter-Glo, 72 hours); format: cell-based; settings: PC9 cells, CellTiter-Glo, read-out: PC9 GI50
Method in brief: (§2)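 Cells are exposed to graded compound concentrations after overnight plating, using 500 PC-9 or 5000 Ba/F3 per well. Baseline-subtracted viability is compared with vehicle to give percent proliferation, then GI50.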

A-431 = assay: Cell proliferation GI50, A-431 cells (Table 6); format: cell-based
[1] = molecular target: T5, EGFR[T790M/C797S/d746-750] (Homo sapiens, UniProt P00533, C797S/DEL746-750/T790M); assay: Inhibition of EGFR[T790M/C797S/d746-750] biochemical enzymatic activity (HTRF); settings: EGFR T790M-C797S-Del19, 1 mM ATP, 1 h, room temperature, read-out: IC50 (nM) @T790M - C797S - Del19
T5 construct: purchased Carna Bio
T5 sequence (P00533 with tags, fused parts or gaps DEL746-750/T790M/C797S limits assumed): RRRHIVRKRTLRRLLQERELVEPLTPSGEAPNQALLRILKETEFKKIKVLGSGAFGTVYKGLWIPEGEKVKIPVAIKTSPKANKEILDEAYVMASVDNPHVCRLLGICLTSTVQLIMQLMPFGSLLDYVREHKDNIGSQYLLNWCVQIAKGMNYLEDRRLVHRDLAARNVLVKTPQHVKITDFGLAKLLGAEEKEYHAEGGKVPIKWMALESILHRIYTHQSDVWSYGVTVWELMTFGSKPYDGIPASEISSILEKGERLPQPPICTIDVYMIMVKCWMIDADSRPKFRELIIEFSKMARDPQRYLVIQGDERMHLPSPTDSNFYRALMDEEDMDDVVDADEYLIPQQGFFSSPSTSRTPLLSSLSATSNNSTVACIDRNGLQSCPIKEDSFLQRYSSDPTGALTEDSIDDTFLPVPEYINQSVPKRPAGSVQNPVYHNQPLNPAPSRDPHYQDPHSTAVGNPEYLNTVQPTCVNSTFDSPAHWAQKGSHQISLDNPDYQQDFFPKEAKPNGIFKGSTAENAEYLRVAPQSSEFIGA
Method in brief: as §1

EGFR (d746-750 C797S) = molecular target: T6, EGFR (d746-750 C797S) (Homo sapiens, UniProt P00533, C797S/DEL746-750); assay: Inhibition of EGFR (d746-750 C797S) biochemical enzymatic activity (HTRF); settings: EGFR Del19-C797S, 1 mM ATP, 1 h, room temperature, read-out: IC50 (nM) @Del19-C797S
T6 construct: purchased signalchem
T6 sequence (P00533 with tags, fused parts or gaps DEL746-750/C797S limits assumed): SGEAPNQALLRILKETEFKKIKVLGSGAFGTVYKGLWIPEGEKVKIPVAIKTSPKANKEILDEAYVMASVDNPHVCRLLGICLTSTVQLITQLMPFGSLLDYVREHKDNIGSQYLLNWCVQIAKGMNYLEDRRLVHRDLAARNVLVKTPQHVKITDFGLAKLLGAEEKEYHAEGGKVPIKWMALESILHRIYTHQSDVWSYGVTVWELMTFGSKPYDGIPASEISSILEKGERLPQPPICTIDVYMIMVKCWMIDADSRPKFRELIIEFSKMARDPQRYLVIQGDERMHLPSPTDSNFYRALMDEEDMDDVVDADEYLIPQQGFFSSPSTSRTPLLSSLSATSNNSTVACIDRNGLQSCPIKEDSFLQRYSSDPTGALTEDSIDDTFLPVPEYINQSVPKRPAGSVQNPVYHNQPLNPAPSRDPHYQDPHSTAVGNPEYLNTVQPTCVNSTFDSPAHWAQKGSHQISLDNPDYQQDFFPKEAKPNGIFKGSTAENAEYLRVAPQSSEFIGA
Method in brief: as §1

[2] = tested on: Ba/F3 cells expressing EGFR mutations; assay: Cell proliferation assay, Ba/F3 cells expressing EGFR mutations (CellTiter-Glo, 72 hours); format: cell-based; settings: CellTiter-Glo
Method in brief: as §2

EGFR wild type = molecular target: T7, EGFR wild type (Homo sapiens, UniProt P00533); assay: Inhibition of EGFR wild type biochemical enzymatic activity (HTRF); settings: EGFR WT, 1 mM ATP, 1 h, room temperature, read-out: IC50 (nM) @WT
T7 construct: purchased Carna Bio
Method in brief: as §1

EGFR L858R = molecular target: T8, EGFR L858R (Homo sapiens, UniProt P00533, L858R); assay: Inhibition of EGFR L858R biochemical enzymatic activity (HTRF); settings: 1 mM ATP, 1 h, room temperature, read-out: IC50 (nM) @L858R
T8 construct: purchased Carna Bio
Method in brief: as §1

EGFR (C797S L858R) = molecular target: T9, EGFR (C797S L858R) (Homo sapiens, UniProt P00533, C797S/L858R); assay: Inhibition of EGFR (C797S L858R) biochemical enzymatic activity (HTRF); settings: EGFR L858-C797S, 1 mM ATP, 1 h, room temperature, read-out: IC50 (nM) @L858-C797S
T9 construct: purchased signalchem
T9 sequence (P00533 25-1210 C797S/L858R): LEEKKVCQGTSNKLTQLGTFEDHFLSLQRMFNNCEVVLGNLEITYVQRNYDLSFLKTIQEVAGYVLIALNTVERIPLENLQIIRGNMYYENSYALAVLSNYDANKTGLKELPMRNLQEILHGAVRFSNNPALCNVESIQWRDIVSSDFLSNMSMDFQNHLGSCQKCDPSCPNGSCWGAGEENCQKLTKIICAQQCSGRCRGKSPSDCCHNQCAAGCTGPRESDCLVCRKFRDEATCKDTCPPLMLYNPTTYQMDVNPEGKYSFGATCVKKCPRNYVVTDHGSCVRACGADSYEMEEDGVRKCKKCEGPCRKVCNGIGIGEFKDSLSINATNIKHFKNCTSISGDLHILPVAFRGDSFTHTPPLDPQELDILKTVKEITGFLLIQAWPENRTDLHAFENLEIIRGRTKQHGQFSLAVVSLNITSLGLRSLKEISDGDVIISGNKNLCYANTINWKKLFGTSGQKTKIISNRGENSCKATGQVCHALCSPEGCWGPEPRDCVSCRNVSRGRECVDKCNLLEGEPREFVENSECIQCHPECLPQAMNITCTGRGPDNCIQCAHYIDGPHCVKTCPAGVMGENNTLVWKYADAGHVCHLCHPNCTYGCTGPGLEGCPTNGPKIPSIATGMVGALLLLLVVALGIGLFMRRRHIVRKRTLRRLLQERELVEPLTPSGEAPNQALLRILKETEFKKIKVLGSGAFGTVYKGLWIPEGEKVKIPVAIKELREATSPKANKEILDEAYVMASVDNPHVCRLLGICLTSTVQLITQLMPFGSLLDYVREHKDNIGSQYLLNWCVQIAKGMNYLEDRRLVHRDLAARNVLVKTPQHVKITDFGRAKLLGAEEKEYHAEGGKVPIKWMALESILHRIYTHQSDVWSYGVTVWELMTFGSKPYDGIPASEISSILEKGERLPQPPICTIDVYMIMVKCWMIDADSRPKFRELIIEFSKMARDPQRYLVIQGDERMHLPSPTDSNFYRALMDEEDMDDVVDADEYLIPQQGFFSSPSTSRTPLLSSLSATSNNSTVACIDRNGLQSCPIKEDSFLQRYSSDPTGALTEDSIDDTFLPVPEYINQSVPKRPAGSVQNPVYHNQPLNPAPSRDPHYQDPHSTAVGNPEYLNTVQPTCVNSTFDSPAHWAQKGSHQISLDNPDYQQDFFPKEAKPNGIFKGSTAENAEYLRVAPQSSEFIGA
Method in brief: as §1

[3] = BaF3 cells, EGFR DEL19-C797S, read-out: DEL19-C797S/BaF3 GI50
[4] = BaF3 cells, EGFR DEL19-T790-C797S, read-out: DEL19-T790-C797S/BaF3 GI50
[5] = BaF3 cells, EGFR L858R, read-out: L858R/BaF3 GI50
[6] = BaF3 cells, EGFR L858R-C797S, read-out: L858R-C797S/BaF3 GI50
[7] = BaF3 cells, EGFR L858R-T790-C797S, read-out: L858R-T790-C797S/BaF3 GI50
[8] = BaF3 cells, EGFR L858R-T790M, read-out: L858R-T790M/BaF3 GI50
[9] = EGFR DEL19-T790M, read-out: DEL19-T790M GI50
[10] = Homo sapiens, A-431, A-431 cells
[11] = Mus musculus, BaF3, 72 h, BaF3 cells, EGFR DEL19-C797S, read-out: DEL19-C797S/BaF3 GI50
[12] = Mus musculus, BaF3, 72 h, BaF3 cells, EGFR DEL19-T790-C797S, read-out: DEL19-T790-C797S/BaF3 GI50
[13] = Mus musculus, BaF3, 72 h, BaF3 cells, EGFR L858R, read-out: L858R/BaF3 GI50
[14] = Mus musculus, BaF3, 72 h, BaF3 cells, EGFR L858R-C797S, read-out: L858R-C797S/BaF3 GI50
[15] = Mus musculus, BaF3, 72 h, BaF3 cells, EGFR L858R-T790-C797S, read-out: L858R-T790-C797S/BaF3 GI50
[16] = Mus musculus, BaF3, 72 h, BaF3 cells, EGFR L858R-T790M, read-out: L858R-T790M/BaF3 GI50
[17] = Mus musculus, BaF3, 72 h, EGFR DEL19-T790M, read-out: DEL19-T790M GI50

Row | IC50 (EGFR L858R/T790M) [nM] | IC50 (EGFR[T790M/C797S/L858R]) [nM] | IC50 (EGFR Exon19Del/T790M) [nM] | IC50 (EGFR Exon19Del) [nM] | GI50 (PC-9) [nM] | GI50 (A-431; A-431 cells) [nM] | IC50 [1] [nM] | IC50 (EGFR (d746-750 C797S)) [nM] | GI50 [2, 3] [nM] | GI50 [2, 4] [nM] | GI50 [2, 5] [nM] | GI50 [2, 6] [nM] | GI50 [2, 7] [nM] | GI50 [2, 8] [nM] | GI50 [2, 9] [nM] | IC50 (EGFR wild type) [nM] | IC50 (EGFR L858R) [nM] | IC50 (EGFR (C797S L858R)) [nM] | GI50 (PC-9; Homo sapiens, PC-9, 72 h) [nM] | GI50 (A-431; [10]) [nM] | Structure (SMILES) | further results
1 | 4.9 | 2.8 | 4.9 | 2.5 | 21 | 2200 | 4.6 | 2.2 | 0.63 | 1 | 0.84 | 3.4 | 1.7 | 8.8 | 1 | 12 | 4.8 | 4.2 | – | – | CN1CCC2(CC1)CCN(c1ccc3nc4n(c3c1)C13CCC(CN(CCOc5c(cnn5C)-c5cc(cn(C)c5=O)C(=O)N4)C1)C3)C2 (single isomer, unassigned) [Example A88B] | –
2 | 1.1 | 1.1 | 1.3 | 0.65 | 2.5 | 712 | 1.2 | 0.48 | 0.64 | 0.92 | 0.79 | 1.9 | 0.84 | 3.5 | 1 | 2.1 | 1.1 | 1.2 | – | – | CN1CCC12CCN(c1ccc3nc4n(c3c1)C13CCC(CN(CCOc5c(cnn5C)-c5cc(cn(C)c5=O)C(=O)N4)C1)C3)CC2 (single isomer, unassigned) [Example A67B] | –
3 | 2190 | 2470 | 27 | 204 | – | – | 19 | 60 | – | – | – | – | – | – | – | > 5000 | 2460 | 1700 | 252 | 1950 | C[C@@H]1CCCOc2c(cnn2C)-c2cc(cn(C)c2=O)C(=O)Nc2nc3ccc(Br)cc3n2C1 [Example M3, (11R)-16-Bromo-5,11,26-trimethyl-7-oxa-4,5,13,20,22,26-hexaazapentacyclo[22.3.1.0^{2,6}.0^{13,21}.0^{14,19}]octacosa-1(28),2(6),3,14,16,18,20,24-octaene-23,27-dione] | GI50 [2, 11]: 89 nM; GI50 [2, 12]: 364 nM; GI50 [2, 13]: 257 nM; GI50 [2, 14]: 344 nM; GI50 [2, 15]: 159 nM; GI50 [2, 16]: 982 nM; GI50 [2, 17]: 300 nM
4 | 3.8 | 3.4 | 3.8 | 2.9 | 2.1 | – | 3.6 | 2.1 | 0.72 | 0.91 | 0.89 | 1.4 | 1.3 | 2.4 | 0.85 | 7.3 | 3.5 | 3.7 | – | 310 | CN1CCC2(CC1)CN(c1ccc3nc4n(c3c1)C13CCC(CN(CCOc5c(cnn5C)-c5cc(cn(C)c5=O)C(=O)N4)C1)C3)C2 (single isomer, unassigned) [Example A77B] | –
5 | 2.2 | 1.4 | 2.2 | 1.2 | 7.6 | 732 | 2 | 1 | 0.79 | 1.4 | 1.1 | 2.2 | 3 | 1.1 | 1.9 | 4.1 | 1.8 | 2.2 | – | – | CN1CCN(C2CCN(c3ccc4nc5n(c4c3)C34CCC(CN(CCOc6c(cnn6C)-c6cc(cn(C)c6=O)C(=O)N5)C3)C4)CC2)CC1 (single isomer, unassigned) [Example A106B] | –
6 | 18 | 7.2 | 7.3 | 4.6 | – | – | 7.1 | 3.7 | – | – | – | – | – | – | – | 446 | 37 | 15 | 24 | 1110 | CCn1ncc2c1OCCC[C@@H](C)Cn1c(nc3ccc(N4CCN(C)CC4)cc31)NC(=O)c1cc-2c(=O)n(C)c1 [Example A21, (11R)-5-ethyl-11,26-dimethyl-16-(4-methylpiperazin-1-yl)-7-oxa-4,5,13,20,22,26-hexaazapentacyclo[22.3.1.0^{2,6}.0^{13,21}.0^{14,19}]octacosa-1(28),2(6),3,14,16,18,20,24-octaene-23,27-dione] | GI50 [2, 11]: 2.1 nM; GI50 [2, 12]: 22 nM; GI50 [2, 13]: 19 nM; GI50 [2, 14]: 26 nM; GI50 [2, 15]: 7.2 nM; GI50 [2, 16]: 6.7 nM; GI50 [2, 17]: 24 nM
7 | 34 | 22 | 16 | 9.2 | – | – | 15 | 4.9 | – | – | – | – | – | – | – | 220 | 26 | 19 | 325 | 1750 | C[C@@H]1CCCOc2c(cnn2C)-c2cc(cn(C)c2=O)C(=O)Nc2nc3ccc(N4CC(F)(CN(C)C)C4)cc3n2C1 [Example A58] | GI50 [2, 11]: 2 nM; GI50 [2, 12]: 28 nM; GI50 [2, 13]: 29 nM; GI50 [2, 14]: 20 nM; GI50 [2, 15]: 37 nM; GI50 [2, 16]: 20 nM; GI50 [2, 17]: 20 nM
8 | > 5000 | > 5000 | > 5000 | 573 | 522 | 2100 | 3960 | 449 | 102 | 112 | 113 | 122 | 152 | 310 | 80 | > 5000 | 1150 | 2790 | – | – | CN1CC2(C1)CN(c1ccc3nc4n(c3c1)C13CCC(CN(CCOc5c(cnn5C)-c5cc(cn(C)c5=O)C(=O)N4)C1)C3)C2 (single isomer, unassigned) [Example A92A] | –

From patent publication US20260365670A1, “EGFR INHIBITORS AND USES THEREOF” (DIZAL (JIANGSU) PHARMACEUTICAL CO., LTD., priority 2022, published 2026)
